Data from PMC6326535, “Total Synthesis of Xanthoangelol B and Its Various Fragments: Toward Inhibition of Virulence Factor Production of Staphylococcus aureus” (Journal of Medicinal Chemistry, 2018).
Where two headings read alike, the source gives them in different places.

Key:
[1] = test system: Gram-positive bacteria; conditions: cited from earlier work
[2] = target: SaeS phosphotransferase (PT) activity (Staphylococcus aureus, UniProt Q840P7); assay type: biochemical; conditions: radioactively phosphorylated SaeS in the presence of SaeR
SaeS phosphotransferase (PT) activity, sequence (Q840P7 118-351): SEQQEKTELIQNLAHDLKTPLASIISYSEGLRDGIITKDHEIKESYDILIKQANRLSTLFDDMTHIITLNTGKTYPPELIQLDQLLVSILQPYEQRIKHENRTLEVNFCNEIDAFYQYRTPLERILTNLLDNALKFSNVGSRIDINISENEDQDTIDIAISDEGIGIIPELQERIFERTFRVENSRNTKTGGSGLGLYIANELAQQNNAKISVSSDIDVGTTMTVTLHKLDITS

[3] = test system: methicillin-resistant S. aureus USA300; assay: cells; assay type: cell-based, Staphylococcus aureus
[4] = target: minimal kinase domain of SaeS (Staphylococcus aureus, UniProt Q840P7); assay: biochemical
minimal kinase domain of SaeS, sequence (Q840P7 118-351): as above

[5] = test system: hla, aur, γ-hemolysin, staphylokinase, sarA; assay type: cell-based, Staphylococcus aureus
[6] = target: AgrC (Staphylococcus aureus, UniProt O07911); assay type: biochemical; conditions: for IC50: 5 μM protein, autokinase activity
AgrC, sequence (O07911 206-430 limits assumed): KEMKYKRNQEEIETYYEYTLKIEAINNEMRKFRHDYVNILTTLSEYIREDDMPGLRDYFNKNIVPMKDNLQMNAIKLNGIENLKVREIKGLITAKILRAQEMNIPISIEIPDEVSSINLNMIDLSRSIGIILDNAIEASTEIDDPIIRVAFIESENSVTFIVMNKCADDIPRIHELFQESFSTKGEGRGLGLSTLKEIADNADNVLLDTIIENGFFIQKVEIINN

[7] = test system: saeS knockout S. aureus; assay type: in vivo, Galleria mellonella; conditions: for reduction in CFU compared to the wild type infection group: saeS knockout infection, after 72 h
[8] = test system: HeLa cells; assay: LDH release cytotoxicity assay; assay type: cell-based; conditions: for IC50: Homo sapiens, HeLa, 72 h, read-out: IC50 for HeLa cell survival
[9] = test system: S. aureus USA300; assay type: in vivo, Galleria mellonella; conditions: for bacterial burden compared to the vehicle control: dose of approximately 1 mg/kg
[10] = test system: S. aureus USA300; conditions: for growth of S. aureus: at (up to) 64 μM, up to 20 h; for bacterial growth: 8 h
Procedure: Figure 1 Various concentrations of compounds were used to treat the USA300-Phlam GFP strain, and GFP expression was analyzed at 8 h. […] All the experiments were performed in triplicates, and significance was compared with control (no treatment) using one-way ANOVA.
56 at the concentration in the range from 2 μM to 64 μM. The cell density w as m onitored as the
optical density at 600 nm.
B act eri al growt h for 8 h i n t he presence of PM-56; C, B acterial growth for 20 h in the presence of
xant hoangel ol B 1; D, B act eri al growt h for 20 hours i n t he presence of PM-56. All the experi m ents
were perform ed in triplicates.

[11] = target: kinase domain of SaeS (Staphylococcus aureus, UniProt Q840P7); assay: biochemical
kinase domain of SaeS, sequence (Q840P7 118-351): as the sequence (Q840P7 118-351) above
Procedure: Next, we attempted to measure the direct binding of 1 and PM-56 with SaeS using the intrinsic fluorescence quenching assay. Since SaeS contains seven Tyr (and zero Trp) residues, the Tyr fluorescence at 306 nm was monitored before and after binding of 1 and PM-56. The reduction of fluorescence upon ligand binding was expressed as the percent fluorescence quenching, and the Kd value was calculated by nonlinear regression fitting (Figure S9).
Purified recom binant SaeS (1 µM ) w as incubated w ith various concentrations
of ei t her (A ) 1 or (B ) PM-56 for 15 m in at room tem perature. U pon excitation at 276 nm,
reductions of SaeS intensities at an emission peak of 306 nm w ere recorded and plotted against the
chem ical concentrations. D ata points were averaged from three independent m easurem ents and
expressed as m eans (dots) ± standard deviations of m eans (w hiskers). Solid lines represent the […]
The intrinsic fluorescence quenching assay to determine the binding affinities of […]
fluorescence of t h e kinase dom ain of SaeS w as recorded at an emission peak of 306 nm upon […]
Eclipse fluorescence spectrophotom eter (A gilent Technologies, U SA ). […]
chem icals but w ithout SaeS w ere used as blanks for correcting the fluorescence intensities. […]
by plotting the reductions of SaeS fluorescence intensity at each chem ical treatm ent against the […]

[12] = test system: SaeRS TCS; assay: microbe, parasite or virus in culture; assay type: cell-based, Staphylococcus aureus USA300; conditions: for IC50 / IC90: Staphylococcus aureus; for IC50: USA300, 8 h, read-out: IC50 against the SaeRS GFP reporter; for IC90: read-out: IC90 for the SaeRS GFP reporter; for inhibition of the SaeRS TCS: at 20 μM
[13] = test system: HeLa cells
[14] = test system: S. aureus USA300; assay type: in vivo, Galleria mellonella; conditions: 72 h; for survival compared to the vehicle control: 5 × 10^6 CFU
[15] = target: minimal kinase domain of SaeS / MBP-SaeS (Staphylococcus aureus, UniProt Q840P7); assay type: binding; conditions: 1.0 mM compound, 0.1 mM SaeS or 30 μM MBP-SaeS
minimal kinase domain of SaeS / MBP-SaeS, sequence (Q840P7 118-351): as above

[16] = design: method as in PMID 22452965; conditions: mice, single dose study; cited from earlier work
[17] = Staphylococcus aureus, USA300, Erythrocyte, 8 h, read-out: IC50 for the inhibition of erythrocyte hemolysis, human RBCs, 8 h incubation of USA300 with compound
[18] = read-out: IC50 for the inhibition of erythrocyte hemolysis, human RBCs, 8 h incubation of USA300 with compound

Compound	antibacterial activity against Gram-positive bacteria [1]	inhibition of phosphotransferase (PT) activity [2]	IC50 [3, 17]	protection from hemolysis ([3]; at 4 μM)	protection from hemolysis ([3]; at 8 μM)	IC50 [3, 18]	IC50 [4]	level of sarA transcription [5]	IC50 [6]	cytotoxicity IC50 relative to IC50 for the GFP-reporter inhibition [8]	IC50 [8]	bacterial burden compared to the vehicle control [9]	growth of S. aureus [10]	Kd [11]	inhibitory activity against SaeRS [12]	IC50 [12]	IC90 [12]	visible toxicity to HeLa cells [13]	inhibition of the SaeRS TCS [12]	also measured
4-hydroxyderricin	shown to have an antibacterial activity	–	–	–	–	–	–	–	–	–	–	–	–	–	–	–	–	–	–	–
C=C(C)C(O)CC/C(C)=C/Cc1c(O)ccc(C(=O)/C=C/c2ccc(O)cc2)c1O (centres unmarked) [Compound 1, Xanthoangelol B]	–	no inhibition was observed	4.62 µM	visible protection	comparable level of protection to that of saeS knockout mutants	4.6 µM	220 µM	not significantly affected	339 µM	10 fold	19.7 µM	sharp decrease	severely inhibited	40 µM	excellent inhibitory activity	2.1 µM	8 µM	did not produce substantially visible toxicity	–	lower activity for AgrC compared to that for SaeS [6]: 1.5 fold; survival rate of G. mellonella infected with the knockout strain ([7]; 2.042 mg/kg body weight every 12 h for 72 h): 70%; reduction in CFU compared to the wild type infection group ([7]; 2.042 mg/kg): 76.8%; decline of bacterial burden ([9]; 4.1 mg/kg): 1.72 log10 CFU/worm; bacterial growth ([10]; at up to 8 μM): did not disrupt bacterial growth; concentration from which growth inhibition started ([10]; growth followed up to 20 h): ≥ 16 µM; survival compared to the vehicle control ([14]; 2.0 mg/kg every 12 h): 3.5 fold; survival ([14]; 3.1 mg/kg every 12 h): 90%; survival ([14]; 4.1 mg/kg every 12 h): complete survival
C=C(C)C(O)CC/C(C)=C/Cc1c(O)ccc(C(=O)CC(O)c2ccc(O)cc2)c1O (centres unmarked) [PM-56, 1-(2,4-Dihydroxy-3-(6-hydroxy-3,7-dimethylocta-2,7-dien-1-yl)phenyl)-3-hydroxy-3-(4-hydroxyphenyl)propan-1-one]	–	no inhibition was observed	3.97 µM	visible protection	comparable level of protection to that of saeS knockout mutants	4 µM	160 µM	not significantly affected	140 µM	7 fold	28.9 µM	sharp decrease	comparable growth to the control	6.8 µM	excellent inhibitory activity	4.3 µM	10 µM	did not produce substantially visible toxicity	–	higher activity than 1 for SaeS [4]: 1.4 fold; higher activity than 1 for AgrC [6]: 2.4 fold; survival rate of G. mellonella infected with the knockout strain ([7]; 2.131 mg/kg body weight every 12 h for 72 h): 90%; reduction in CFU compared to the wild type infection group ([7]; 2.131 mg/kg): 83.3%; decline of bacterial burden ([9]; 4.3 mg/kg): 1.84 log10 CFU/worm; bacterial growth ([10]; at up to 16 μM): did not disrupt bacterial growth; binding to SaeS by 1D CPMG and 1D STD NMR [15]: specifically binds to SaeS; survival compared to the vehicle control ([14]; 2.1 mg/kg every 12 h): 3.5 fold; survival ([14]; 3.2 mg/kg every 12 h): 90%; survival ([14]; 4.3 mg/kg every 12 h): complete survival
COc1ccc(C(=O)/C=C/c2ccc(O)cc2)c(O)c1C/C=C(\C)CCC=C(C)C [xanthoangelol F, reference compound]	–	–	–	–	–	–	–	–	–	–	–	–	–	–	–	–	–	–	did not show inhibitory activity	–
CC(C)=CCC/C(C)=C/Cc1c(O)ccc(C(=O)/C=C/c2ccc(O)cc2)c1O [xanthoangelol]	shown to have an antibacterial activity	–	–	–	–	–	–	–	–	–	–	–	–	–	–	–	–	–	did not show inhibitory activity	absorption and distribution after oral administration [16]: absorbed and distributed rapidly; absorption efficiency [16]: low
